Measured values from publication PMC5848165 (Toxins, 2018).
pIC50: −log10 of the molar value. Residues, ends and D or L forms follow the SMILES beside them.

What was measured:
rNav1.3 = molecular target: T1, rNav1.3 (Rattus norvegicus, UniProt P08104); assay: Whole-cell patch clamp, Nav1.3 in HEK293 cells; type: cell-based; conditions: −10 mV from −80 mV holding
T1 construct: expressed in transfected cells; host or cells: HEK293 (HEK293T) cells, transient
Text: (§1) Nine sodium channel subtypes have been identified and classified as TTX-S (Nav1.1–Nav1.4, Nav1.6, and Nav1.7) or TTX-R types (Nav1.5, Nav1.8, and Nav1.9). […] However, the subtype selectivity of JZTX-34 on the subtype of sodium channel is still unknown. In this work, effects of JZTX-34 on VGSC subtypes (Nav1.1–Nav1.8) were examined. Nav1.1–Nav1.7 were transfected into HEK293 cells and Nav1.8 currents were expressed in ND cells. Inward sodium currents were elicited by a 50 ms depolarizing potential to −10 mV from a holding potential of −80 mV every 5 s. […] No effects on other sodium channel subtypes were found (Nav1.1, Nav1.2, Nav1.4–Nav1.6, and Nav1.8) (Figure S2).
Figure 2 Selectivity of JZTX-34 on sodium channel subtypes. […]
(§2) The HEK293T cells were maintained in standard culture conditions (5% CO2 and 37 °C). […] After culturing for 36–72 h, cells with obvious green fluorescence were selected for sodium currents recordings the internal solution for sodium currents recording that contained (in mM) 140 CsF, 5 NaCl, 10 HEPES, 3 Na2-ATP, and 10 EGTA. […]
(§3) Sodium currents were recorded from DRG, HEK293, and ND cells by the whole-cell patch-clamp technique at 25 °C. […] Experiments date were acquired from whole-cell Axon 700B patch clamp amplifier (Molecular Devices, Sunnyvale, CA, USA) and analyzed by the program Clampfit10.0 (Molecular Devices, Sunnyvale, CA, USA) and Sigmaplot. […]

Nav1.6 = assay: Whole-cell patch clamp, Nav1.6 in HEK293 cells; type: cell-based; conditions: 1 µM, −10 mV from −80 mV
Text: as §1
as §2, with “°C). Then, 10% fetal bovine serum was added to Dulbecco’s modified Eagle’s medium.” for “°C).”
as §3

Nav1.7 = assay: Gating properties of Nav1.7 (current-voltage, steady-state activation and inactivation); type: cell-based, human
Description: We investigated the effects of this toxin on the gating properties of Nav1.7. The current-voltage relationship of Nav1.7 was investigated using step depolarization ranging from −80 to +80 mV from a holding potential of −80 mV. Under control conditions, the threshold of initial activation was about −40 mV, and the inward current peaked at −20 mV. […] The midpoint of channel activation before and after application of 1 µM toxin was −27.9 ± 3.3 and −28.1 ± 2.9 mV, respectively (Figure S3B). […] The effect of JZTX-34 on steady-state inactivation was also investigated using a standard two-pulse protocol as described in the legend. […]
cDNA genes encoding rat Nav1.1, Nav1.2, Nav1.3, Nav1.4, Nav1.5, human Nav1.7 (hNav1.7), and hNav1.8 were subcloned into the vectors pRGB4 and pcDNA3.1-mod, respectively. The chimera of Nav1.5 (Nav1.7-DII-S3-S4) and Nav1.7 (Nav1.5-DIV-S3-S4) were constructed according the methods described previously. Mutations of Nav1.5 and Nav1.7 were constructed using QuikChange II XL Site-Directed Mutagenesis kit (Agilent Technologies Inc, Palo Alto, CA, USA). All chimera and mutations were sequenced to determine the right sequences.
The HEK293T cells were maintained in standard culture conditions (5% CO2 and 37 °C). Then, 10% fetal bovine serum was added to Dulbecco’s modified Eagle’s medium. Sodium channel subtypes (Nav1.1–Nav1.5, Nav1.7), the chimera and mutants of Nav1.5 and Nav1.7 with β1subnit tagged with eGFP in a molar ratio of 2:1, were transiently co-transfected into HEK293 cells using Lipofectamine 3000 (Invitrogen, Carlsbad, CA, USA). Nav1.8, β1subnit, and eGFP were co-transfected into ND cells using the same protocol. After culturing for 36–72 h, cells with obvious green fluorescence were selected for sodium currents recordings the internal solution for sodium currents recording that contained (in mM) 140 CsF, 5 NaCl, 10 HEPES, 3 Na2-ATP, and 10 EGTA. […]
as §3
Data from Axon 700B patch clamp were analyzed by Clampfit10.0 (Molecular Devices, Sunnyvale, CA, USA). […] The G-V curves were obtained by calculating the conductance (G) at each voltage (V) using the equation G = I/(V1 − Vrev), with Vrev being the reversal potential determined for each cell individually. […] All the results from patch clamp and animal models are expressed as means ± standard error of the mean (SEM). Statistical significance was calculated using Student’s t-test and was defined as p < 0.05. […]

T1 sequence (Q07699 19-218): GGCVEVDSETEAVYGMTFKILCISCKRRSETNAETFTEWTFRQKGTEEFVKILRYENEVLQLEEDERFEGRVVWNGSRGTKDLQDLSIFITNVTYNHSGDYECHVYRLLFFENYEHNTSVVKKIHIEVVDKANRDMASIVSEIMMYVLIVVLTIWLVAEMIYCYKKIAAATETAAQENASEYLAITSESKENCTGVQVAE
T1 sequence (P08104 whole entry): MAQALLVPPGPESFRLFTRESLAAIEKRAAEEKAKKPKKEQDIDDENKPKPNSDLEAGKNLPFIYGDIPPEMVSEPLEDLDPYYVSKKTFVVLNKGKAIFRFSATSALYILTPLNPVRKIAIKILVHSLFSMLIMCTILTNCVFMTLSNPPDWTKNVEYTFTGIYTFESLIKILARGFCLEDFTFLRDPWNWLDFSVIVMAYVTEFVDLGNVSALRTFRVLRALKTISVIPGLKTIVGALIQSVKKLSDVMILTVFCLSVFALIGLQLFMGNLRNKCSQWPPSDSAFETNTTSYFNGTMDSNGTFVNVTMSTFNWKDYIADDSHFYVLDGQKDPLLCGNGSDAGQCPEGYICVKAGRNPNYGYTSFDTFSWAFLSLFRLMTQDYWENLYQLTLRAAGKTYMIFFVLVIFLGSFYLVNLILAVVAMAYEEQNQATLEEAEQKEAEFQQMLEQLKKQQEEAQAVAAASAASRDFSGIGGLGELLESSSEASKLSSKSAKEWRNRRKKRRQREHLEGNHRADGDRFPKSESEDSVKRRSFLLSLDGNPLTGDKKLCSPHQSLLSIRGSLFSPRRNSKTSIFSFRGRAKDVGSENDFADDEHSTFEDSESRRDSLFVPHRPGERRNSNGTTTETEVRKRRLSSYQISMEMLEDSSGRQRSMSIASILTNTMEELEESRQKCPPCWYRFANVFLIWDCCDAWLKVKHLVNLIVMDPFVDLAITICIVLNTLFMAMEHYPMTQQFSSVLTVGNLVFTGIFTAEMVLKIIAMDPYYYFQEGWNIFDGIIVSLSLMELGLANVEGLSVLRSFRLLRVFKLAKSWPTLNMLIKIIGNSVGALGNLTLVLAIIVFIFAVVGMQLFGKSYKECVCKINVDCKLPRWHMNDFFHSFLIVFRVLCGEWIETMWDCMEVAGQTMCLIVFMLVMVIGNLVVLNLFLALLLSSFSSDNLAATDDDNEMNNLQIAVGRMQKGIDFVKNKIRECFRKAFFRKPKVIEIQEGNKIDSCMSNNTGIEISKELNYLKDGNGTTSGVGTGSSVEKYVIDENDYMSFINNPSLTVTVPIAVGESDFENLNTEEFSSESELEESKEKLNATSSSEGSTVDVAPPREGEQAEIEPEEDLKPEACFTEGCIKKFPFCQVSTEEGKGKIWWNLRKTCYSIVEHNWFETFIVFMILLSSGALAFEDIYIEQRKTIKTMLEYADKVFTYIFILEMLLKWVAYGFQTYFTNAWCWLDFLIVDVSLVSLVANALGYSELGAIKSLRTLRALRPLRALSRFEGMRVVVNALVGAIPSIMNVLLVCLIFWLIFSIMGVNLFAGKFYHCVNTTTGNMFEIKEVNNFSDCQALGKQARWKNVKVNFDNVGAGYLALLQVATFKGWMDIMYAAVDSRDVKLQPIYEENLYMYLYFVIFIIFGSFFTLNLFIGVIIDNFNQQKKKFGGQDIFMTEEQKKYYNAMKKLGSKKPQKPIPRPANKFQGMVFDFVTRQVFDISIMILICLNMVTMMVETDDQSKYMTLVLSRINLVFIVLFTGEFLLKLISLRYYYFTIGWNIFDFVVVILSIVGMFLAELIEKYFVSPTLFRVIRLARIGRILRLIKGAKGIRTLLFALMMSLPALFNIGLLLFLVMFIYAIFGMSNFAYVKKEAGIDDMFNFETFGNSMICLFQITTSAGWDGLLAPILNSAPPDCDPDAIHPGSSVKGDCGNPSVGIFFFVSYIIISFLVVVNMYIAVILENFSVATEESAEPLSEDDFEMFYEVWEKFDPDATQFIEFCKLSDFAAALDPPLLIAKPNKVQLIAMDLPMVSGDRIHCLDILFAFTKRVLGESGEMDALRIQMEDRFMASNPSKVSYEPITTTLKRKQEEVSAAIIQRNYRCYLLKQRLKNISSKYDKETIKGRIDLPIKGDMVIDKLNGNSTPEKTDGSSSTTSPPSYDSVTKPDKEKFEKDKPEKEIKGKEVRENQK

CC(C)C[C@@H]1NC(=O)[C@H](Cc2c[nH]c3ccccc23)NC(=O)[C@H](CCC(=O)O)NC(=O)[C@H](CCCNC(=N)N)NC(=O)[C@@H](NC(=O)[C@H](C)N)CSSC[C@@H]2NC(=O)[C@@H]3CSSC[C@@H](C(=O)N[C@H](C(=O)N[C@@H](Cc4c[nH]c5ccccc45)C(=O)N[C@@H](CC(=O)O)C(=O)N[C@@H](Cc4c[nH]c5ccccc45)C(=O)N[C@H](C(=O)N[C@H](C(=O)O)C(C)C)[C@@H](C)O)C(C)C)NC(=O)[C@H](Cc4c[nH]cn4)NC(=O)[C@H](Cc4ccc(O)cc4)NC(=O)[C@@H]4CCCN4C(=O)[C@H](Cc4c[nH]c5ccccc45)NC(=O)[C@H](CCCCN)NC(=O)[C@H](CCCCN)NC(=O)[C@H](CCCNC(=N)N)NC(=O)[C@H](CSSC[C@H](NC(=O)CNC(=O)CNC1=O)C(=O)N[C@@H](CO)C(=O)N[C@@H](CCCCN)C(=O)N[C@@H](CC(=O)O)C(=O)N[C@@H](C)C(=O)N[C@@H](CC(=O)O)C(=O)N3)NC(=O)[C@H](CCC(=O)O)NC(=O)[C@H](CC(C)C)NC(=O)[C@H](Cc1c[nH]cn1)NC(=O)[C@H](C)NC2=O [JZTX-34, Jingzhaotoxin-34] (HELM PEPTIDE1{A.C.R.E.W.L.G.G.C.S.K.D.A.D.C.C.A.H.L.E.C.R.K.K.W.P.Y.H.C.V.W.D.W.T.V}$PEPTIDE1,PEPTIDE1,2:R3-16:R3|PEPTIDE1,PEPTIDE1,9:R3-21:R3|PEPTIDE1,PEPTIDE1,15:R3-29:R3$$$V2.0; N-terminus and C-terminus assumed)
reduction of Nav1.3 currents (rNav1.3; 1 µM, mean ± S.E.): 29.4 ± 4.6% | pIC50 (rNav1.3; Hill fit, n = 5): 5.10 | effect on Nav1.6 currents (Nav1.6): No effects | shift of steady-state inactivation (Nav1.7; 1 µM): small hyperpolarizing shift in the steady-state inactivation | midpoint of steady-state inactivation with toxin (Nav1.7; 1 µM, "with or without" toxin −67.3 and −73.7 mV, respectively, 500 ms prepulse −100 to −10 mV, test pulse −10 mV 20 ms, n = 5): about −67.3 mV | current-voltage relationship of Nav1.7 (Nav1.7; 1 µM, steps −80 to +80 mV from −80 mV holding): did not alter the current-voltage relationship | midpoint of channel activation after toxin (Nav1.7; after 1 µM toxin (before: −27.9 ± 3.3 mV), Boltzmann fit, n = 5): −28.1 ± 2.9 mV
